In patent US8367687B2, “Pyrazole derivatives” (Novartis AG, priority 2007, dated 2013) one finds IC50 data, which are given here for 29 molecules.

Where two headings read alike, the source gives them in different places.

The target in one experiment is hCDK1/B (Homo sapiens, UniProt P06493). As to the kind of experiment: hCDK1/B. The experiment is classed as biochemical.
For another experiment, the target named is CDK4 (Homo sapiens, UniProt P11802). The experiment can be described thus: CDK4 HTRF. It is filed as biochemical.
A further experiment deals with CDK2 cyA (Homo sapiens, UniProt P24941). The experiment can be described thus: CDK2 cyA IMAP. The experiment is classed as biochemical.
The next experiment concerns p-pRb/S780. As to the kind of experiment: p-pRb/S780 ELISA Cellular Assay (CDK4 ELISA assay). The experiment is classed as cell-based. Particulars: cells treated for 24 hrs. How it is done:
Biological Activity p-pRb/S780 ELISA Cellular Assay
Maxisorp plates (Nunc 442404) are coated with 50 ul of 1 ug/mL total phospholated Retinoblast Protein (pRb) antibody (4H1 Cell Signaling 9309L) diluted in DPBS (Phosphate Buffered Saline) overnight at 4° C. The next day plates are blocked with Superblock in TBST (Pierce 37535) for one hour to overnight—changing block once during that time. Cells are plated at 50-60% confluency in a 96 well plate (Corning 3585) in 100 uL complete media (media containing fetal bovine serum (Gibco 1600-044), 2 mM L-Glutamine (Gibco 25030), and 1% Penicillin/Streptomycin (Gibco 15140-122) and grown overnight in a humidified chamber at 37° C. and 5% CO2. Compounds (in DMSO) are diluted in media to create a 7 point dilution series of compound with concentrations ranging from 110 uM to 0.027 uM. 10 ul of the diluted compounds are added to the cells, with final concentrations on cells ranging from 10 uM to 0.002 uM. Cells are treated for 24 hrs in a humidified chamber at 37° C. and 5% CO2. Following compound incubation, cells are lysed with 40 uL/well lysis buffer (50 mM Tris-HCL pH 7.5 (Invitrogen 15567-027), 120 mM NaCl (Promega V4221), 1 mM EDTA (Gibco 15575-038), 6 mM EGTA (Fisher 02783-100), 1% Nonidet P40 (Fluka R02771). Plates are placed on Titerplate shaker (Labline model 4625) for 5 minutes at 4° C. to lyse cells. After lysis, 10 ul of cell lysate and 50 ul 1×PBS/10% Superblock (Gibco 10010 and Pierce 37535) is added to each well of the precoated and blocked Maxisorp plate and allowed to bind at room temperature for 2 hours on Oribtron Rotator II (Boekel Industries Model 260250). Plates are then washed 3× with 1×TBST (Teknova T9201) using Biotek platewasher equipped with a Biostack. The final wash is not aspirated. The final wash is removed by flicking off and tapping plate on paper towels. ppRbS780 antibody (Cell Signaling 9307L) is diluted 1:1000 in 1×PBS/10% Superblock (Gibco 10010 and Pierce 37535) and 50 ul is added to each well. Plates are then incubated 1 hour on Oribtron Rotator II (Boekel Industries Model 260250). Plates are then washed as previously described. Goat anti-rabbit HRP (Promega W401B) is diluted 1:2500 1×PBS/10% Superblock (Gibco 10010 and Pierce 37535) and 50 ul is added to each well. Plates are then incubated 30 minutes on Oribtron Rotator II. Plates are then washed as previously described. 50 uL Ultra TMB ELISA (Pierce 34028) is then added to each well. Plates are incubated 5-20 minutes until blue color develops. 50 ul 2M Sulfuric acid (Mallinckrodt 2468-46) is then added to each well to stop the reaction. Absorbance at 450 nm for each plate is read on Spectramax Plus (Molecular Devices).

[1] abbreviates: Table 2, read-out: CDK4 HTRF/ IC50.
The mark [2] stands for this setting: Table 2, read-out: CDK2cyA IMAP/ IC50.
Where [3] appears, read: Table 2, read-out: p_pRb Cap EL/ IC50_ppRbinh.
Setting [4] is: Table 1, read-out: CDK2 cyA IMAP.
Setting [5] is: Table 1, read-out: CDK4 ELISA assay IC50.

Sequence of CDK4 (P11802 whole entry): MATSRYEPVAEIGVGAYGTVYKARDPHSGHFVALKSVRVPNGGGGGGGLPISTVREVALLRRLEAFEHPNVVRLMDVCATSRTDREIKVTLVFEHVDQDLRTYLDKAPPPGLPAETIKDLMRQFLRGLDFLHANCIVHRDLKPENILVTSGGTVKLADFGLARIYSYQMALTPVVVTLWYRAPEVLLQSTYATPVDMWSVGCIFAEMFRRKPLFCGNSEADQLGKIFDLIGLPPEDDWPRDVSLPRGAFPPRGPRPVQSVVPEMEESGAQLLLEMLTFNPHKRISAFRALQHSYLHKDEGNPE
Sequence of CDK4 (P24385 whole entry partner): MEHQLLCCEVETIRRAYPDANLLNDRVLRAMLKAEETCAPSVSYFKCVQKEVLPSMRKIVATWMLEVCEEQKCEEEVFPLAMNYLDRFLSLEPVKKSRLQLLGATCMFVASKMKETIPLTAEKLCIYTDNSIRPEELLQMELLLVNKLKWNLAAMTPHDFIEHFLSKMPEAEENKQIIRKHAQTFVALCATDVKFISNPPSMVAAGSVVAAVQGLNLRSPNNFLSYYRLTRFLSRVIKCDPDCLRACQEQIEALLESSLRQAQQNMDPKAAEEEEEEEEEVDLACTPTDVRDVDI
Sequence of hCDK1/B (P06493 whole entry): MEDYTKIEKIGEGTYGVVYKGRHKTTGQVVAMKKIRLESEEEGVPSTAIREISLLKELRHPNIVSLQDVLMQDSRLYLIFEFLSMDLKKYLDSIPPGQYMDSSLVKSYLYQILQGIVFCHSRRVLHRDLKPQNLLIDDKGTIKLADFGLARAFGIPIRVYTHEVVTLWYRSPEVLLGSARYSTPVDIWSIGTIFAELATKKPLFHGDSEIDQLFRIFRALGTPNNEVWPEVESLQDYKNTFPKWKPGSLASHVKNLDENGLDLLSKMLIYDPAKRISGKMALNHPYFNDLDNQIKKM
Sequence of hCDK1/B (P14635 whole entry partner): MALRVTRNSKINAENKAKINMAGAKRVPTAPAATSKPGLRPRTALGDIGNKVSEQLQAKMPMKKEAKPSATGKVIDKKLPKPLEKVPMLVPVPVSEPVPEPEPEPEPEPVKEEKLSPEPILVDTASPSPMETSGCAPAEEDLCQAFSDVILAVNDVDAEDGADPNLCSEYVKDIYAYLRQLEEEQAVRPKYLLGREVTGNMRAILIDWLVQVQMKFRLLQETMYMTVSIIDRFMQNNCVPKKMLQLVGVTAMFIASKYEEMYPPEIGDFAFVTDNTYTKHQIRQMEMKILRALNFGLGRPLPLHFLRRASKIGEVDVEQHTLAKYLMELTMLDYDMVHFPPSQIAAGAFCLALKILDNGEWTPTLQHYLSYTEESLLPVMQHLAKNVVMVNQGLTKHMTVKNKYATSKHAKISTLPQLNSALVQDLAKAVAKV

In the case of `CC(C)c1n[nH]cc1-c1ccnc(NC2CCC(C)(C)c3ccccc32)n1` (centres unmarked) [Example 188], the IC50 against hCDK1/B (Table 2) is at least 15 µM; at CDK4 (setting [1]), below 0.1 µM; on CDK2 cyA (setting [2]), at least 15 µM; in the experiment on p-pRb/S780 (setting [3]), below 5 µM.

For `Cc1cc(C)cc(CNc2nccc(-c3c[nH]nc3C)n2)c1` [Example 134], the IC50 is at least 15 µM on hCDK1/B (Table 2), below 5 µM on CDK4 (setting [1]), at least 15 µM at CDK2 cyA (setting [2]) and below 15 µM with p-pRb/S780 (setting [3]).

Regarding `CC(C)c1[nH]ncc1-c1ccnc(Nc2ccccc2)c1` [Example 48], the IC50 was below 0.1 µM against hCDK1/B (Table 1); below 0.1 µM on CDK4 (Table 1, read-out: CDK4 HTRF); below 0.05 µM at CDK2 cyA (setting [4]); below 1 µM in the experiment on p-pRb/S780 (setting [5]).

Turning to `COc1ccccc1CNc1nccc(-c2c[nH]nc2C)n1` [Example 130], the IC50 is below 10 µM against hCDK1/B (Table 2), below 5 µM on CDK4 (setting [1]), below 15 µM on CDK2 cyA (setting [2]) and below 15 µM with p-pRb/S780 (setting [3]).

For `Cc1n[nH]cc1-c1ccnc(NCCN2CCCCC2)n1` [Example 111], the IC50 against hCDK1/B (Table 2) was at least 15 µM; on CDK4 (setting [1]) it was below 10 µM; on CDK2 cyA (setting [2]), at least 15 µM; with p-pRb/S780 (setting [3]) it was below 15 µM.

For the molecule `COc1cccc(OC)c1CNc1nccc(-c2c[nH]nc2C(C)C)n1` [Example 156], the IC50 was at least 15 µM against hCDK1/B (Table 2), below 15 µM on CDK4 (setting [1]), at least 15 µM at CDK2 cyA (setting [2]) and below 15 µM in the experiment on p-pRb/S780 (setting [3]).

As for `COc1cccc(CNc2nccc(-c3c[nH]nc3C)n2)c1` [Example 107], the IC50 is at least 15 µM at hCDK1/B (Table 2), below 10 µM at CDK4 (setting [1]), at least 15 µM at CDK2 cyA (setting [2]) and below 15 µM with p-pRb/S780 (setting [3]).

`Cc1n[nH]cc1-c1ccnc(NCCOc2ccccc2)n1` [Example 98]: the IC50 on hCDK1/B (Table 2) is below 15 µM; on CDK4 (setting [1]) it was below 5 µM; at CDK2 cyA (setting [2]), below 15 µM; in the experiment with p-pRb/S780 (setting [3]), below 15 µM.

Regarding `CC(C)c1[nH]ncc1-c1ccnc(NCCN2CCCC2)c1` [Example 17], the IC50 on hCDK1/B (Table 1) is at least 15 µM; on CDK4 (Table 1, read-out: CDK4 HTRF), below 5 µM; on CDK2 cyA (setting [4]), at least 15 µM; in the experiment with p-pRb/S780 (setting [5]), below 15 µM.

Turning to `CC(C)c1n[nH]c(Br)c1-c1ccnc(NC2CCN(C)CC2)n1` [Example 179], the IC50 at hCDK1/B (Table 2) was below 5 µM; on CDK4 (setting [1]) it was below 0.1 µM; on CDK2 cyA (setting [2]), below 5 µM; with p-pRb/S780 (setting [3]), below 1 µM.

Turning to `Cc1n[nH]cc1-c1ccnc(NCCC2CCCN2C)n1` (centres unmarked) [Example 113], the IC50 against hCDK1/B (Table 2) is at least 15 µM; at CDK4 (setting [1]) it was below 10 µM; at CDK2 cyA (setting [2]) it was at least 15 µM; in the experiment on p-pRb/S780 (setting [3]), below 15 µM.

In the case of `CC(C)c1n[nH]cc1-c1ccnc(N[C@H]2CCCc3ccccc32)n1` [Example 178], the IC50 is below 10 µM at hCDK1/B (Table 2), below 5 µM on CDK4 (setting [1]), at least 15 µM at CDK2 cyA (setting [2]) and below 15 µM in the experiment with p-pRb/S780 (setting [3]).

In the case of `Cc1n[nH]cc1-c1ccnc(NCCCO)n1` [Example 121], the IC50 is below 15 µM at hCDK1/B (Table 2), below 5 µM on CDK4 (setting [1]), below 15 µM at CDK2 cyA (setting [2]) and below 15 µM in the experiment with p-pRb/S780 (setting [3]).

On to `Cc1n[nH]cc1-c1ccnc(NCCC#N)n1` [Example 96], for which the IC50 is below 15 µM on hCDK1/B (Table 2), below 5 µM on CDK4 (setting [1]), below 15 µM on CDK2 cyA (setting [2]) and below 15 µM in the experiment on p-pRb/S780 (setting [3]).

As for `Cc1ccc(CNc2cc(-c3cn[nH]c3C3CCCC3)ccn2)cc1` [Example 64], the IC50 against hCDK1/B (Table 1) was below 5 µM; on CDK4 (Table 1, read-out: CDK4 HTRF) it was below 10 µM; on CDK2 cyA (setting [4]), below 5 µM; with p-pRb/S780 (setting [5]), below 5 µM.

`Cc1n[nH]cc1-c1ccnc(NCc2cccnc2)n1` [Example 127]: the IC50 was below 15 µM at hCDK1/B (Table 2), below 10 µM on CDK4 (setting [1]), below 10 µM on CDK2 cyA (setting [2]) and below 15 µM in the experiment with p-pRb/S780 (setting [3]).

For the molecule `CC(C)c1n[nH]cc1-c1ccnc(NC2CN3CCC2CC3)n1` (centres unmarked) [Example 159], the IC50 was below 0.5 µM on hCDK1/B (Table 2), below 0.05 µM on CDK4 (setting [1]), below 5 µM at CDK2 cyA (setting [2]) and below 5 µM in the experiment on p-pRb/S780 (setting [3]).

For `Cc1n[nH]cc1-c1ccnc(NCc2cccc(C(F)(F)F)c2)n1` [Example 89], the IC50 at hCDK1/B (Table 2) was below 10 µM; at CDK4 (setting [1]), below 5 µM; on CDK2 cyA (setting [2]), below 10 µM; in the experiment with p-pRb/S780 (setting [3]) it was below 15 µM.

As for `Cc1n[nH]cc1-c1ccnc(NCCN(C)C)n1` [Example 94], the IC50 at hCDK1/B (Table 2) was at least 15 µM; on CDK4 (setting [1]) it was below 10 µM; at CDK2 cyA (setting [2]), at least 15 µM; in the experiment with p-pRb/S780 (setting [3]) it was below 15 µM.

On to `Cc1n[nH]cc1-c1ccnc(NCC2CCCO2)n1` (centres unmarked) [Example 88], for which the IC50 at hCDK1/B (Table 2) was below 15 µM; at CDK4 (setting [1]), below 15 µM; on CDK2 cyA (setting [2]), at least 15 µM; in the experiment on p-pRb/S780 (setting [3]), below 15 µM.

On to `Cc1n[nH]cc1-c1ccnc(NC2CC2)n1` [Example 97], for which the IC50 against hCDK1/B (Table 2) is below 10 µM; on CDK4 (setting [1]), below 5 µM; on CDK2 cyA (setting [2]), below 10 µM; in the experiment with p-pRb/S780 (setting [3]), below 15 µM.

With `Cc1ccccc1CNc1cc(-c2cn[nH]c2C2CCCCCC2)ccn1` [Example 66], the IC50 was below 10 µM on hCDK1/B (Table 1); below 5 µM at CDK4 (Table 1, read-out: CDK4 HTRF); below 10 µM at CDK2 cyA (setting [4]); below 15 µM in the experiment on p-pRb/S780 (setting [5]).

For `CC(C)c1[nH]ncc1-c1ccnc(NCCC2CCCN2C)c1` (centres unmarked) [Example 42], the IC50 against hCDK1/B (Table 1) was at least 15 µM; at CDK4 (Table 1, read-out: CDK4 HTRF) it was below 5 µM; on CDK2 cyA (setting [4]), at least 15 µM; with p-pRb/S780 (setting [5]), below 15 µM.

With `Cc1n[nH]cc1-c1ccnc(NCC2CCCCC2)n1` [Example 103], the IC50 is below 10 µM against hCDK1/B (Table 2), below 5 µM at CDK4 (setting [1]), below 10 µM on CDK2 cyA (setting [2]) and below 15 µM in the experiment with p-pRb/S780 (setting [3]).

Turning to `CC(C)c1n[nH]cc1-c1ccnc(NC2CCCCC2C)n1` (centres unmarked) [Example 160], the IC50 at hCDK1/B (Table 2) was below 0.5 µM; at CDK4 (setting [1]), below 0.1 µM; at CDK2 cyA (setting [2]), below 1 µM; in the experiment on p-pRb/S780 (setting [3]) it was below 5 µM.

Take `CC(C)c1[nH]ncc1-c1ccnc(NCCOc2ccccc2)c1` [Example 21]: the IC50 against hCDK1/B (Table 1) is below 10 µM; on CDK4 (Table 1, read-out: CDK4 HTRF) it was below 5 µM; on CDK2 cyA (setting [4]), below 10 µM; in the experiment on p-pRb/S780 (setting [5]), below 15 µM.

In the case of `CC(C)c1n[nH]cc1-c1ccnc(NC2CCCc3ccccc32)n1` (centres unmarked) [Example 169], the IC50 against hCDK1/B (Table 2) is below 5 µM; at CDK4 (setting [1]), below 0.05 µM; on CDK2 cyA (setting [2]), below 1 µM; with p-pRb/S780 (setting [3]), below 5 µM.

`Cc1n[nH]cc1-c1ccnc(NCC2CCCCCC2)n1` [Example 105]: the IC50 against hCDK1/B (Table 2) is below 10 µM; at CDK4 (setting [1]) it was below 5 µM; at CDK2 cyA (setting [2]), below 15 µM; with p-pRb/S780 (setting [3]), below 15 µM.

Turning to `CC(C)c1[nH]ncc1-c1ccnc(NCc2cccc(C(F)(F)F)c2)c1` [Example 25], the IC50 at hCDK1/B (Table 1) was below 5 µM; on CDK4 (Table 1, read-out: CDK4 HTRF) it was below 5 µM; on CDK2 cyA (setting [4]), below 5 µM; in the experiment on p-pRb/S780 (setting [5]), below 0.1 µM.
